Reference: patent US20240208901A1, “Deuterated 3,3'-Diselenodipropionic Acid (DSePA) and Its Use as an Anticancer or Radioprotective Agent” (Secretary, Department of Atomic Energy, priority 2022, published 2024)

Assays:
[1] = test system: non-cancerous human lung fibroblast cells (WI-38 & WI-26 VA4); assay: MTT assay, non-cancerous human lung fibroblast cells (summary statement); format: cell-based; details: WI-38 & WI-26 VA4 cells
Source text: 3,3′-Disclenodipropionic acid-D8 (D-DSePA, chemical structure shown in FIG. 1) was synthesized by reacting freshly prepared sodium selenide (Na2Se2) and 3-bromopropionic acid-D4 in D2O solvent with 42% yield. The synthesized D-DSePA was purified and characterized by NMR spectroscopy and mass spectrometry. The molecular structure of D-DSePA has been established by single-crystal X-ray diffraction analysis. The treatment of D-DSePA and un-deuterated DSePA inhibited the growth of human NSCLC cells such as A549, H1975 and H3122 with half maximum concentration (IC50) in the range of 5-50 μM by MTT assay. […] Finally, at identical treatment concentration, D-DSePA offered better radioprotection to non-cancerous WI38 cells with a dose modification factor (DMF) of 1.16±0.05 as compared to un-deuterated DScPA with DMF of 1.12±0.03.
MTT Assay—To evaluate the anti-proliferative effect of D-DScPA and DScPA, Cells (˜5×10^3) suspended in 100 μl of complete culture medium were seeded in each well of 96 well plates. […] The percentage (%) cytotoxicity was calculated from the decrease in absorbance at 570 nm of treated groups as compared to that of control group. […] The therapeutic index was calculated by normalizing the IC50 concentration of D-DSePA/DSePA in non-cancerous cells to that in cancerous cells.

WI-38 cells = assay: Clonogenic assay, radioprotection of WI-38 cells against γ-irradiation; format: cell-based, human; details: γ-irradiation 2-12 Gy
Experimental: Further, clonogenic assay is considered as the gold standard method for evaluating the anticancer activity of any compound and is also a good indicator of the in vivo efficacy of any anticancer compound. Therefore, the therapeutic index of DSePA and D-DSePA in A549/WI-38 cells was also validated by employing the clonogenic assay. For this, A549/WI-38 cells were treated with the varying concentrations (0.1-2 μM)/(1-500 μM) of DSePA/D-DSePA for seven days and the survival fraction was calculated by counting the number of surviving clones (FIG. 11A). The plot of survival fraction verses the concentration of DScPA/D-DSCPA was used to estimate the IC50 of above compounds to inhibit the growth of A549/WI-38 cells. […] This clearly confirmed that deuteration of DScPA reduced its toxicity in normal cells without compromising its efficacy in cancer cells. Since anticancer agents are intended to be used in combination with radiation, DSePA/D-DSePA at a treatment concentration of 0.5 μM (dose close to IC50 as determined by clonogenic assay) was combined with varying absorbed doses (2-8 Gy) of γ-irradiation and the effect of combinatorial treatment on the viability of A549 cells was determined by clonogenic assay (FIG. 12A & 12B). For this, A549 cells exposed to the varying absorbed doses (2-8 Gy) of γ-radiation were immediately treated with DScPA/D-DScPA and cultured for seven days prior to clonogenic assay. […] The D10 value of the combinatorial treatment involving DScPA estimated was 4.5 Gy (FIG. 12B). […]
(§1) Clonogenic assay—Clonogenic assay was performed according to the method reported previously. […] After 7 days, colonies were fixed with absolute methanol for 5 min, stained with 0.5% crystal violet for 5 min, washed with distilled water to remove excess stain and counted manually under a stereo microscope. […] The plating efficiency and the survival fraction under irradiated and drug treated conditions were calculated using following formulae: […]
(§2) The plating efficiency of A549 and WI38 cells was calculated by seeding ˜300 and ˜500 cells respectively. […]

A549 cells = assay: Clonogenic assay, combinatorial treatment with γ-irradiation in A549 cells; format: cell-based, human
Experimental: Further, clonogenic assay is considered as the gold standard method for evaluating the anticancer activity of any compound and is also a good indicator of the in vivo efficacy of any anticancer compound. Therefore, the therapeutic index of DSePA and D-DSePA in A549/WI-38 cells was also validated by employing the clonogenic assay. For this, A549/WI-38 cells were treated with the varying concentrations (0.1-2 μM)/(1-500 μM) of DSePA/D-DSePA for seven days and the survival fraction was calculated by counting the number of surviving clones (FIG. 11A). The plot of survival fraction verses the concentration of DScPA/D-DSCPA was used to estimate the IC50 of above compounds to inhibit the growth of A549/WI-38 cells. […] This clearly confirmed that deuteration of DScPA reduced its toxicity in normal cells without compromising its efficacy in cancer cells. Since anticancer agents are intended to be used in combination with radiation, DSePA/D-DSePA at a treatment concentration of 0.5 μM (dose close to IC50 as determined by clonogenic assay) was combined with varying absorbed doses (2-8 Gy) of γ-irradiation and the effect of combinatorial treatment on the viability of A549 cells was determined by clonogenic assay (FIG. 12A & 12B). For this, A549 cells exposed to the varying absorbed doses (2-8 Gy) of γ-radiation were immediately treated with DScPA/D-DScPA and cultured for seven days prior to clonogenic assay. […] The D10 value of the combinatorial treatment involving DScPA estimated was 4.5 Gy (FIG. 12B). Similarly, D10 value of the combinatorial treatment involving D-DSePA estimated was 4 Gy. From these values, the dose modification factor (DMF or the ratio of the D10 of combinatorial treatment to that of D10 of radiation) of DScPA and D-DScPA estimated was 0.87±0.01 and 0.83±0.02 respectively. […] While the objective of radiotherapy is to achieve tumor control, it is also known to cause normal tissue toxicity. Previously, DSePA has been reported to protect normal cells from lethal effects of γ-radiation. Thus radio-protective activity of D-DSePA was compared with DScPA in terms of their abilities to protect non-cancerous lung fibroblast (WI-38) cells against γ-irradiation induced cell death. For this, WI-38 cells were pretreated with DSePA/D-DScPA for 24 h at an identical concentration of 0.5 μM (close to IC50 required to inhibit growth of A549 lung cancer cells by clonogenic assay) and then exposed to varying doses (2-12 Gy) of γ-irradiation. The survival of cells against radiation exposure was estimated by clonogenic assay and the dose response curve was prepared in the presence and absence of drug (DSePA/D-DScPA) (FIG. 12C & 12D). By using this dose response curve, the dose modification factor (DMF or the ratio of the D10 of radiation plus drug and D10 of radiation alone) of DSePA and D-DSePA estimated was 1.12±0.03 and 1.16±0.05 respectively.
as §1, §2

[2] = test system: lung cancer cell lines (A549, H1975 and H3122) versus normal lung cells (WI-38 and WI-26 VA4); assay: Therapeutic index by MTT assay, lung cancer cell lines versus normal lung cells; format: cell-based, human; details: for Therapeutic Index (IC50 in normal cell / IC50 in cancer cells): 48 h post-treatment
Experimental: Therefore, D-DSePA was compared with un-deuterated DSePA for its anticancer activity in A549, H1975 and H3122 cell lines which are representative of NSCLC. For this, above cells were treated with the varying concentrations (0.1-100 μM) of DSePA/D-DSePA for 48 h and the cell viability was determined by MTT assay (FIG. 9A-C). The plot of percent (%) cytotoxicity (100-% viability) versus the concentration of DSePA/D-DSePA was used to estimate the half maximum concentration (IC50) of above compounds to inhibit the proliferation of cells. […] Similarly, the toxicity of DSePA/D-DSePA was studied in non-cancerous lung fibroblast cells, WI-38 and WI-26 VA4 in the concentration range of 0.1 to 1000 μM at 48 h post treatment by MTT assay (FIG. 9D and 9E). […] Employing these values, the therapeutic index (IC50 in normal lung cell/IC50 in lung cancer cell) of DSePA and D-DSePA in different pairs of normal versus cancerous cells (viz., A549/WI-38, A549/WI-26 VA4, H1975/WI-38, H1975/WI-26 VA4, H3122/WI-38 and H3122/WI-26 VA4) was calculated (Table-3). […] The average therapeutic index of DSePA and D-DSePA estimated from above study was 11.05±1.5 and 78.7±29.2 respectively (FIG. 10).
MTT Assay—To evaluate the anti-proliferative effect of D-DScPA and DScPA, Cells (˜5×10^3) suspended in 100 μl of complete culture medium were seeded in each well of 96 well plates. The cells were allowed to attach and grow for 24 h, treated with desired concentrations of D-DSePA/DScPA dissolved in culture medium for 48 h and then processed for MTT assay as described in literature. The percentage (%) cytotoxicity was calculated from the decrease in absorbance at 570 nm of treated groups as compared to that of control group. The % cytotoxicity was plotted as a function of the concentration of D-DSePA and DSePA and from this curve, the concentration of D-DSePA/DScPA causing 50% toxicity (IC50) was estimated. The therapeutic index was calculated by normalizing the IC50 concentration of D-DSePA/DSePA in non-cancerous cells to that in cancerous cells.

In the case of `[2H]C([2H])([Se][Se]C([2H])([2H])C([2H])([2H])C(=O)O)C([2H])([2H])C(=O)O` [D-DSePA, 3,3′-diselenodipropionic acid-D8], the “IC50 higher as compared to un-deuterated DSePA” value [1] was 4 to 5 times, the “dose modification factor (DMF, D10 of radiation plus drug / D10 of radiation alone)” value (WI-38 cells; WI-38 cells pretreated 24 h with 0.5 μM drug, clonogenic assay) was 1.16±0.05 and the “radioprotective activity in normal lung cells” value (WI-38 cells; WI-38 cells, 0.5 μM 24 h pre-treatment) was “exhibited radioprotective activity in normal lung cells”. For the same compound, the “dose modification factor (DMF, D10 of combinatorial treatment / D10 of radiation)” value (A549 cells; 0.5 μM drug immediately after γ-radiation (2-8 Gy)) was 0.83±0.02, the “effect on radiation kill of lung cancer cells” value (A549 cells; 0.5 μM with γ-radiation 2-8 Gy) was “did not protect lung cancer cells from radiation kill” and the “D10 value (decimal reduction dose) of the combinatorial treatment” value (A549 cells; γ-radiation 2-8 Gy then 0.5 μM drug immediately, seven days, radiation alone D10 5 Gy) was 4 Gy. For the same compound, the “Therapeutic Index (IC50 in normal cell / IC50 in cancer cells)” value ([2]; A549/WI-26 VA4, MTT assay) was 36.2 ± 1.9, the “Therapeutic Index (IC50 in normal cell / IC50 in cancer cells)” value ([2]; A549/WI-38, MTT assay) was 65.7 ± 3.3 and the “Therapeutic Index (IC50 in normal cell / IC50 in cancer cells)” value ([2]; H1975/WI-26 VA4, MTT assay) was 119.6 ± 5.9. The “Therapeutic Index (IC50 in normal cell / IC50 in cancer cells)” value ([2]; H1975/WI-38, MTT assay) was 217.4 ± 10.9, the “Therapeutic Index (IC50 in normal cell / IC50 in cancer cells)” value ([2]; H3122/WI-26 VA4, MTT assay) was 11.8 ± 0.6 and the “Therapeutic Index (IC50 in normal cell / IC50 in cancer cells)” value ([2]; H3122/WI-38, MTT assay) was 21.5 ± 1.0. The average therapeutic index ([2]; mean of six normal/cancer cell pairs, mean±SEM (n=6), MTT assay) was 78.7±29.2 and the “higher therapeutic index as compared to un-deuterated DSePA” value ([2]; non-cancerous lung fibroblast versus NSCLC (A549, H1975 and H3122)) was about 7 folds.
